# What was measured:
# Assay in all cases: biochemical
# Parameters in all cases: KINOMEscan competition binding, DNA-tagged kinase against immobilised ligand, qPCR read-out
# Conditions in all cases: read-out: Percent Control
# NEK4 = NEK4 (Homo sapiens, UniProt P51957)
# CASK = CASK (Homo sapiens, UniProt O14936)
# SRC = SRC (Homo sapiens, UniProt P12931)
# NEK7 = NEK7 (Homo sapiens, UniProt Q8TDX7)
# CAMK1 = CAMK1 (Homo sapiens, UniProt Q14012)
# CDKL2 = CDKL2 (Homo sapiens, UniProt Q92772)
# EPHA3 = EPHA3 (Homo sapiens, UniProt P29320)
# MAP4K2 = MAP4K2 (Homo sapiens, UniProt Q12851)
# MAPK6 = MAPK6 (Homo sapiens, UniProt Q16659)
# RIPK1 = RIPK1 (Homo sapiens, UniProt Q13546)
# EIF2AK2 = EIF2AK2 (Homo sapiens, UniProt P19525)
# PIM3 = PIM3 (Homo sapiens, UniProt Q86V86)
# PAK4 = PAK4 (Homo sapiens, UniProt O96013)
# MKNK1 = MKNK1 (Homo sapiens, UniProt Q9BUB5)
# MYLK3 = MYLK3 (Homo sapiens, UniProt Q32MK0)
# PIM1 = PIM1 (Homo sapiens, UniProt P11309)
# GAK = GAK (Homo sapiens, UniProt O14976)
# SBK1 = SBK1 (Homo sapiens, UniProt Q52WX2)
# CAMK2B = CAMK2B (Homo sapiens, UniProt Q13554)
# PLK1 = PLK1 (Homo sapiens, UniProt P53350)
# PLK1, sequence (P53350 whole entry): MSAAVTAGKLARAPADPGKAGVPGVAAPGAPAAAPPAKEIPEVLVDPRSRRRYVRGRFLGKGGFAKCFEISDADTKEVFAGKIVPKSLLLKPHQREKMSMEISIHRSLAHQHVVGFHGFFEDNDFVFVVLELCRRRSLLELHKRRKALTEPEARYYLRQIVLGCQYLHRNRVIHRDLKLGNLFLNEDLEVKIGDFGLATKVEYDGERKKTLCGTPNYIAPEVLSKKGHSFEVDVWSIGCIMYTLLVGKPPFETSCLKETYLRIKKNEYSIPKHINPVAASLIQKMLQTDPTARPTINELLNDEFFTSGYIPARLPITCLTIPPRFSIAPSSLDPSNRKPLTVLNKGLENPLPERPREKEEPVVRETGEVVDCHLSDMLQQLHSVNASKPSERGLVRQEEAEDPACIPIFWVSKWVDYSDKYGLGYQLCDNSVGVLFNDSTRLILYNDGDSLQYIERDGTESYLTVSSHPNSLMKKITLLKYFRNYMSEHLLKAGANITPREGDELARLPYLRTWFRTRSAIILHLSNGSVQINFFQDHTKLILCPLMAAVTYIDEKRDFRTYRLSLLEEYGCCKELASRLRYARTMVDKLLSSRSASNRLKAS
# SRC, sequence (P12931 whole entry): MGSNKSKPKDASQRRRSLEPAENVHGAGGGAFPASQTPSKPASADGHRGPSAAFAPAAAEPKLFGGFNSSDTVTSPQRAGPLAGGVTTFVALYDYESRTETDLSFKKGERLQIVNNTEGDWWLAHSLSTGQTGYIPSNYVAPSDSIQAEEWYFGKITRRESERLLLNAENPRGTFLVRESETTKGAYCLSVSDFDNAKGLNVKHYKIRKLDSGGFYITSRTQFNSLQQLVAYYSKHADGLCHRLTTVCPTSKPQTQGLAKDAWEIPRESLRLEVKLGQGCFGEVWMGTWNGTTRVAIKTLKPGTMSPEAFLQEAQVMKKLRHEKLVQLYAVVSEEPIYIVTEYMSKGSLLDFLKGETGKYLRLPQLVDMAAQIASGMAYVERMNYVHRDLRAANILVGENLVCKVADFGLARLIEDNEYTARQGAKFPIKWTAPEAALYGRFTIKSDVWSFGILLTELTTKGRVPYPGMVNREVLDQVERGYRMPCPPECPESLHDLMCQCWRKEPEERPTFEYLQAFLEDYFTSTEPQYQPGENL
# NEK7, sequence (Q8TDX7 whole entry): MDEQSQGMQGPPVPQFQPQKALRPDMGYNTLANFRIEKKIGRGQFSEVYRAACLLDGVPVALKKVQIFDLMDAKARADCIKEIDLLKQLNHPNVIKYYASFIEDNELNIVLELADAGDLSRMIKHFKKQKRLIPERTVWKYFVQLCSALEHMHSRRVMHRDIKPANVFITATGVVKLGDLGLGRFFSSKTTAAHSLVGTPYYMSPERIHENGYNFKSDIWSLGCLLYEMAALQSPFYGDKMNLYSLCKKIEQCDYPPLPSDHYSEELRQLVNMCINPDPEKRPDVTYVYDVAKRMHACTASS
# CDKL2, sequence (Q92772 whole entry): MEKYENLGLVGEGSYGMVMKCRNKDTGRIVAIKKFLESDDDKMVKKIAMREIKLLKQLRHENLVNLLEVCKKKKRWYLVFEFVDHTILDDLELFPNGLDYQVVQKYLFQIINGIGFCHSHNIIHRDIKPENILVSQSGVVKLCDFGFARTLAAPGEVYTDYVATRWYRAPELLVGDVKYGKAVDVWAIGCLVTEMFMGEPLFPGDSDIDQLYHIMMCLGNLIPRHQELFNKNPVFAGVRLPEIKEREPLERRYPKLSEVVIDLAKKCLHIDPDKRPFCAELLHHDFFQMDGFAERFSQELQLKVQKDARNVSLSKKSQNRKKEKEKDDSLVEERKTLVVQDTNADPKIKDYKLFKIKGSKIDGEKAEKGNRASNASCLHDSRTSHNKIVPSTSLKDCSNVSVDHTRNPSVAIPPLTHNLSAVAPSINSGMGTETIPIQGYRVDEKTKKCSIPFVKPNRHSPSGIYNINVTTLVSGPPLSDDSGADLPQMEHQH
# EIF2AK2, sequence (P19525 whole entry): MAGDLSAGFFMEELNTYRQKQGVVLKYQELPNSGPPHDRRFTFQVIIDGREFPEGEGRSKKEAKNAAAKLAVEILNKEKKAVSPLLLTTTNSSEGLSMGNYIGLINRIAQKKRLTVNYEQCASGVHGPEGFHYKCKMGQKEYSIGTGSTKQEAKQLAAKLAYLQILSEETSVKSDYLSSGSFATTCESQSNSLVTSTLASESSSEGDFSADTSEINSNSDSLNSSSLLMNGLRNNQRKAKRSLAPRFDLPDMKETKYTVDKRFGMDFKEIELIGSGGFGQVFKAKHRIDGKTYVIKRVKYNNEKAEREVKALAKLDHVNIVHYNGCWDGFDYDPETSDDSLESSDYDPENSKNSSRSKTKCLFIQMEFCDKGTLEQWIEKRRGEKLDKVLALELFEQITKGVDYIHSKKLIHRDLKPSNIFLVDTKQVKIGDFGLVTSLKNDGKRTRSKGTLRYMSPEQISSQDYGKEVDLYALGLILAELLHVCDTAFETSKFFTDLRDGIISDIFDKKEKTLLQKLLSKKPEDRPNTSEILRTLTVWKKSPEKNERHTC
# EPHA3, sequence (P29320 whole entry): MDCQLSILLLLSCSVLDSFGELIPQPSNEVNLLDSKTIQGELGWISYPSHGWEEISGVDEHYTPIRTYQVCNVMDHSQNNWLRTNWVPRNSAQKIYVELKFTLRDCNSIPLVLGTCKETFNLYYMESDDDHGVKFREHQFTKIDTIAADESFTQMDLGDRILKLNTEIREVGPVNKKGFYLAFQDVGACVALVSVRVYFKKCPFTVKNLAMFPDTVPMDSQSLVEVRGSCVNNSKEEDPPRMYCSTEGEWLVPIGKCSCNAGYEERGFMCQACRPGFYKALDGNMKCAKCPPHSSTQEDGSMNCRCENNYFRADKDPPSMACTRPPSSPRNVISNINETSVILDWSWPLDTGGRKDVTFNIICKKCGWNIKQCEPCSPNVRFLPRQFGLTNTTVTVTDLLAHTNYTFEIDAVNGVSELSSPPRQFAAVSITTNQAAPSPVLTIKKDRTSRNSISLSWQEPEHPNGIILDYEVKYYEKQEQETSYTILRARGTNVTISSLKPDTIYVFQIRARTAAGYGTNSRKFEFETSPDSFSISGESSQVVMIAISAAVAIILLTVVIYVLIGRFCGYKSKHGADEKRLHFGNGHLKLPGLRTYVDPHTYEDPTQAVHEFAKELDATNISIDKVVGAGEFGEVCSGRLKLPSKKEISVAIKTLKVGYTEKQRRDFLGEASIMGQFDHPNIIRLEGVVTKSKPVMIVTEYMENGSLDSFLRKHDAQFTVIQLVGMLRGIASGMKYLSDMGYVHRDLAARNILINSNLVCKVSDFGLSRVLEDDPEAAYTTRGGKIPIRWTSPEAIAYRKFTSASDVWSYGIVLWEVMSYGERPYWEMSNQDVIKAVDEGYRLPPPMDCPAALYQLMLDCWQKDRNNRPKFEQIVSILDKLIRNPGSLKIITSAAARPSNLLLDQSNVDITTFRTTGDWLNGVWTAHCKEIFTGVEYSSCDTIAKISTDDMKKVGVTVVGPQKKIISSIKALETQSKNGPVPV
# NEK4, sequence (P51957 whole entry): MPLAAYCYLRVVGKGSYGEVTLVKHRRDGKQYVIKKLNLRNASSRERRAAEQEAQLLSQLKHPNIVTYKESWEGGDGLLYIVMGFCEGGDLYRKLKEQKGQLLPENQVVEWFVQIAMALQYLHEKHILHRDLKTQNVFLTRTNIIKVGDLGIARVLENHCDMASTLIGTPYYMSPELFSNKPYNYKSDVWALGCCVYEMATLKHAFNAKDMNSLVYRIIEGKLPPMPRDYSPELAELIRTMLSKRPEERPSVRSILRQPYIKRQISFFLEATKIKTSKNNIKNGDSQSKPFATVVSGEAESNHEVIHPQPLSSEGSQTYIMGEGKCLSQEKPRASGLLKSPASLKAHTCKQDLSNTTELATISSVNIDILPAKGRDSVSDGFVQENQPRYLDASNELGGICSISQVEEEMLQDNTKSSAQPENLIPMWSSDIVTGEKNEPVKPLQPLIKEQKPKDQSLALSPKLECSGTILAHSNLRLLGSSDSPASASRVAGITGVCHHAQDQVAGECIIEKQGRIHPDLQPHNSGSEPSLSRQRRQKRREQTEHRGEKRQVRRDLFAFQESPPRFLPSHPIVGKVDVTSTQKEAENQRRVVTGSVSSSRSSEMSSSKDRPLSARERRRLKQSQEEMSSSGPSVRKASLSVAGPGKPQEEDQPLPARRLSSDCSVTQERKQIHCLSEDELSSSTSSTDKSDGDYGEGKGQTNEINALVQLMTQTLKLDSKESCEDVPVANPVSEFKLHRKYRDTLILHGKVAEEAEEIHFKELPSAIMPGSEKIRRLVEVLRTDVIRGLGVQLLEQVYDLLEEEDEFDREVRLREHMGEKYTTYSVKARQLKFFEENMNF
# MKNK1, sequence (Q9BUB5 whole entry): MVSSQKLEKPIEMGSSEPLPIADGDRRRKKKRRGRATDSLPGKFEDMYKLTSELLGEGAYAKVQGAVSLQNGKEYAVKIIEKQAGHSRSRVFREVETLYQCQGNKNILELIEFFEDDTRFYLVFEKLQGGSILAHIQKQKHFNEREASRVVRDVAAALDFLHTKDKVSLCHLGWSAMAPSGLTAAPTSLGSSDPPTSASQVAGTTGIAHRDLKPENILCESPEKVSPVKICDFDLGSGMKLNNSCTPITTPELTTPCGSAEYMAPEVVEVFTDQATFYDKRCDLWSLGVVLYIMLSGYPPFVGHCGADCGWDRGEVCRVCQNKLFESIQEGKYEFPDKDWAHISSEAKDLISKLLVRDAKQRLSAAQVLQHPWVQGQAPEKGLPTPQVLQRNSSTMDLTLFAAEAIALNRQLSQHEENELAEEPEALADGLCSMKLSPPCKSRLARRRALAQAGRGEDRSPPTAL
smiles,measurement,setting,value
"Oc1ccc(C2=Cc3ccc(O)cc3OC2)cc1 [compound 1, idronoxil]",remaining binding at 10 µM,NEK4,98%
same,remaining binding at 10 µM,CASK,65%
same,remaining binding at 10 µM,SRC,47%
same,remaining binding at 10 µM,NEK7,99%
same,remaining binding at 10 µM,CAMK1,96%
same,remaining binding at 10 µM,CDKL2,100%
same,remaining binding at 10 µM,EPHA3,89%
same,remaining binding at 10 µM,MAP4K2,26%
same,remaining binding at 10 µM,MAPK6,96%
same,remaining binding at 10 µM,RIPK1,78%
same,remaining binding at 10 µM,EIF2AK2,85%
same,remaining binding at 10 µM,PIM3,40%
same,remaining binding at 10 µM,PAK4,76%
same,remaining binding at 10 µM,MKNK1,55%
same,remaining binding at 10 µM,MYLK3,66%
same,remaining binding at 10 µM,PIM1,34%
same,remaining binding at 10 µM,GAK,58%
same,remaining binding at 10 µM,SBK1,91%
same,remaining binding at 10 µM,CAMK2B,83%
same,remaining binding at 10 µM,PLK1,77%
